Laboratory results published in patent US7781428B2 (Pfizer Inc., priority 2006, dated 2010).
Where a name gives a salt, the structure may show the parent alone.

Molecular target: T1, mineralocorticoid receptor (MR) (Homo sapiens, UniProt P08235)
T1 construct: expressed in transfected cells; host or cells: Huh7 (human liver cells)
T1 sequence (P08235 726-964 limits assumed): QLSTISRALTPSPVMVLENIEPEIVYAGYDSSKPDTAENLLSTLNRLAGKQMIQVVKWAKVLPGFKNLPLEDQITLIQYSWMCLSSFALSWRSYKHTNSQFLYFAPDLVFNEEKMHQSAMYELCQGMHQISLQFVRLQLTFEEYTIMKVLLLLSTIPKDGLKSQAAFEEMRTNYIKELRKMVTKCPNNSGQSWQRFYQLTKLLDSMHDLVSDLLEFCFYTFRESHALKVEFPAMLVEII
Test: Cell-based Gal4 response element-controlled luciferase reporter assay (MR antagonism)
Details: Huh7 human liver cells transfected with Gal4 DBD-MR LBD fusion and luciferase reporter; block of agonist-induced activation; overnight incubation
Method in brief: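 Transiently transfected Huh7 cells were treated with agonist at 70-80% of full activation plus compounds for 18-20 h in medium with charcoal/dextran-stripped serum. Luciferase read-out was normalized to β-galactosidase (ONPG, OD420); IC50 came from curve fitting.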

SMILES | IC50
N#Cc1ccc(N2N=C3c4ccc(C(=O)O)cc4OC[C@H]3[C@H]2c2ccc(F)cc2)cc1Cl [Example 57, (3S,3aS)-2-(3-chloro-4-cyanophenyl)-3-(4-fluorophenyl)-2,3,3a,4-tetrahydrochromeno[4,3-c]pyrazole-7-carboxylic acid] | 3510 nM
Cc1ccc(C2C3CCc4cc(C(=O)O)ccc4C3=NN2c2ccc(C#N)c(Cl)c2)o1 (racemic) [Example 39] | 22 nM
N#Cc1ccc(N2N=C3c4ccc(C(=O)O)cc4OCC3C2C2=CCCC2)cc1Cl (racemic) [Example 78, (±)-(3RS,3aRS)-2-(3-chloro-4-cyanophenyl)-3-cyclopentenyl-2,3,3a,4-tetrahydrochromeno[4,3-c]pyrazole-7-carboxylic acid] | 70 nM
N#Cc1ccc(N2N=C3c4ccc(C(=O)O)cc4OC[C@H]3[C@H]2c2ccc(F)cc2)cc1 [Example 60, (3S,3aS)-2-(4-cyanophenyl)-3-(4-fluorophenyl)-2,3,3a,4-tetrahydrochromeno[4,3-c]pyrazole-7-carboxylic acid] | > 1000 nM
Cc1cc(N2N=C3c4ccc(C(=O)O)cc4OCC3C2c2ccc(F)cc2)ccc1C#N (racemic) [Example 53, (±)-(3SR,3aSR)-2-(4-cyano-3-methylphenyl)-3-(4-fluorophenyl)-2,3,3a,4-tetrahydrochromeno[4,3-c]pyrazole-7-carboxylic acid] | 307 nM
N#Cc1ccc(N2N=C3c4ccc(C(=O)O)cc4CC[C@@H]3[C@@H]2C2CCCC2)cc1O (racemic) [Example 33] | > 500 nM
N#Cc1ccc(N2N=C3c4ccc(C(=O)O)cc4OC[C@@H]3[C@@H]2c2ccc(F)cc2)cc1 [Example 59, (3R,3aR)-2-(4-cyanophenyl)-3-(4-fluorophenyl)-2,3,3a,4-tetrahydrochromeno[4,3-c]pyrazole-7-carboxylic acid] | > 1000 nM
C[C@]12CCc3cc(C(=O)O)ccc3C1=NN(c1ccc(C#N)c(Cl)c1)[C@H]2C1CCCC1 [Example 94, (3S,3aR)-2-(3-chloro-4-cyanophenyl)-3-cyclopentyl-3a-methyl-3,3a,4,5-tetrahydro-2H-benzo[g]indazole-7-carboxylic acid] | 25 nM
N#Cc1ccc(N2N=C3c4ccc(O)cc4CC[C@@H]3[C@@H]2c2ccc(F)cc2)cc1C(F)(F)F [Example 84, 4-((3R,3aR)-3-(4-fluorophenyl)-7-hydroxy-3,3a,4,5-tetrahydrobenzo[g]indazol-2-yl)-2-(trifluoromethyl)benzonitrile] | 113 nM
N#Cc1ccc(N2N=C3c4ccc(C(=O)O)cc4OCC3C2C2CCCC2)cc1 (racemic) [Example 70, 2-(4-cyanophenyl)-3-cyclopentyl-2,3,3a,4-tetrahydrochromeno[4,3-c]pyrazole-7-carboxylic acid] | 906 nM
N#Cc1ccc(N2N=C3c4ccc(C(=O)O)cc4CCC3C2C2CCCC2)cc1OCc1ccccc1 (racemic) [Example 31, 2-(3-(benzyloxy)-4-cyanophenyl)-3-cyclopentyl-3,3a,4,5-tetrahydro-2H-benzo[g]indazole-7-carboxylic acid] | 488 nM
Cc1cc(N2N=C3c4ccc(C(=O)O)cc4OC[C@@H]3[C@@H]2C2=CCCC2)ccc1C#N (racemic) [Example 77, (±)-(3RS,3aRS)-2-(4-cyano-3-methylphenyl)-3-cyclopentenyl-2,3,3a,4-tetrahydrochromeno[4,3-c]pyrazole-7-carboxylic acid] | 13 nM
N#Cc1ccc(N2N=C3c4ccc(C(=O)O)cc4CCC3C2C2CCCC2)cc1 (racemic) [Example 18, 2-(4-cyanophenyl)-3-cyclopentyl-3,3a,4,5-tetrahydro-2H-benzo[g]indazole-7-carboxylic acid] | 89 nM
CC(=O)Nc1ccc2c(c1)CCC1C2=NN(c2ccc(C#N)c(Cl)c2)C1C1CCCC1 (centres unmarked) [Example 91, N-(-2-(3-chloro-4-cyanophenyl)-3-cyclopentyl-3,3a,4,5-tetrahydro-2H-benzo[g]indazol-7-yl)acetamide] | 5 nM
N#Cc1ccc(N2N=C3c4ccc(C(=O)O)cc4OCC3C2C2CCCC2)cc1Cl (racemic) [Example 67, 2-(3-chloro-4-cyanophenyl)-3-cyclopentyl-2,3,3a,4-tetrahydrochromeno[4,3-c]pyrazole-7-carboxylic acid] | 146 nM
N#Cc1ccc(N2N=C3c4ccc(C(=O)NCCOCC(=O)O)cc4CC[C@@H]3[C@@H]2c2ccc(F)cc2)cc1Cl (racemic) [Example 109, (±)-2-(2-((3RS,3aRS)-2-(3-chloro-4-cyanophenyl)-3-(4-fluorophenyl)-3,3a,4,5-tetrahydro-2H-benzo[g]indazole-7-carboxamido)ethoxy)acetic acid] | > 1000 nM

SMILES | IC50
CS(=O)(=O)NC(=O)c1ccc2c(c1)CC[C@H]1C2=NN(c2ccc(C#N)c(Cl)c2)[C@H]1c1ccc(F)cc1 (racemic) [Example 113, (±)-(3RS,3aRS)-2-(3-chloro-4-cyanophenyl)-3-(4-fluorophenyl)-N-(methylsulfonyl)-3,3a,4,5-tetrahydro-2H-benzo[g]indazole-7-carboxamide] | 995 nM
N#Cc1ccc(N2N=C3c4ccc(C(=O)O)cc4OC[C@@H]3[C@@H]2c2ccc(F)cc2)cc1Cl [Example 56, (3R,3aR)-2-(3-chloro-4-cyanophenyl)-3-(4-fluorophenyl)-2,3,3a,4-tetrahydrochromeno[4,3-c]pyrazole-7-carboxylic acid] | 302 nM
CN(C)Cc1cc(N2N=C3c4ccc(C(=O)O)cc4CCC3C2C2CCCC2)ccc1C#N (racemic) [Example 29, 2-(4-cyano-3-((dimethylamino)methyl)phenyl)-3-cyclopentyl-3,3a,4,5-tetrahydro-2H-benzo[g]indazole-7-carboxylic acid trifluoroacetate] | > 1000 nM
N#Cc1ccc(N2N=C3c4ccc(C(=O)O)cc4CC[C@H]3[C@H]2c2ccc(F)cc2)cc1Cl [Example 4, (3S,3aS)-2-(3-chloro-4-cyanophenyl)-3-(4-fluorophenyl)-3,3a,4,5-tetrahydro-2H-benzo[g]indazole-7-carboxylic acid] | 3500 nM
N#Cc1ccc(N2N=C3c4ccc(C(=O)O)cc4CCC3C2c2ccno2)cc1 (racemic) [Example 52, 2-(4-cyanophenyl)-3-isoxazol-5-yl-3,3a,4,5-tetrahydro-2H-benzo[g]indazole-7-carboxylic acid] | 4980 nM
N#Cc1ccc(N2N=C3c4ccc(C(=O)O)cc4CCC3C2C2=CCCC2)cc1Cl (racemic) [Example 42, 2-(3-chloro-4-cyanophenyl)-3-cyclopentenyl-3,3a,4,5-tetrahydro-2H-benzo[g]indazole-7-carboxylic acid] | 15 nM
N#Cc1ccc(N2N=C3c4ccc(C(=O)NCCCCC(=O)O)cc4CC[C@@H]3[C@@H]2c2ccc(F)cc2)cc1Cl (racemic) [Example 104, (±)-5-((3RS,3aRS)-2-(3-chloro-4-cyanophenyl)-3-(4-fluorophenyl)-3,3a,4,5-tetrahydro-2H-benzo[g]indazole-7-carboxamido)pentanoic acid] | 122 nM
COC(=O)c1ccc2c(c1)CCC1C2=NN(c2ccc(C#N)c(OCc3ccccc3)c2)C1C1CCCC1 (racemic) [Example 30, methyl 2-(3-(benzyloxy)-4-cyanophenyl)-3-cyclopentyl-3,3a,4,5-tetrahydro-2H-benzo[g]indazole-7-carboxylate] | 446 nM
Cc1cc(N2N=C3c4ccc(O)cc4CCC3C2c2ccc(F)cc2)ccc1C#N (centres unmarked) [Example 80] | 49 nM
N#Cc1ccc(N2N=C3c4ccc(C(=O)O)cc4CCC3C2C2CCC2)cc1Cl (racemic) [Example 35, 2-(3-chloro-4-cyanophenyl)-3-cyclobutyl-3,3a,4,5-tetrahydro-2H-benzo[g] indazole-7-carboxylic acid] | 21 nM
N#Cc1ccc(N2N=C3c4ccc(C(=O)O)cc4CC[C@@H]3[C@@H]2c2ccoc2)cc1Cl [Example 47, (3R,3aR)-2-(3-chloro-4-cyanophenyl)-3-(3-furyl)-3,3a,4,5-tetrahydro-2H-benzo[g]indazole-7-carboxylic acid] | 18 nM
N#Cc1ccc(N2N=C3c4ccc(C(=O)O)cc4OCC3C2C2CCCC2)cc1C(F)(F)F (racemic) [Example 68, (±)-(3RS,3aSR)-2-[4-cyano-3-(trifluoromethyl)phenyl]-3-cyclopentyl-2,3,3a,4-tetrahydrochromeno[4,3-c]pyrazole-7-carboxylic acid] | 52 nM
N#Cc1ccc(N2N=C3c4ccc(C(=O)O)cc4OC[C@H]3[C@H]2C2CCCC2)cc1Cl [Example 66, (3R,3aS)-2-(3-chloro-4-cyanophenyl)-3-cyclopentyl-2,3,3a,4-tetrahydrochromeno[4,3-c]pyrazole-7-carboxylic acid] | 3350 nM
N#Cc1ccc(N2N=C3c4ccc(C(=O)O)cc4CCC3C2C2CCOCC2)cc1Cl (racemic) [Example 36, 2-(3-chloro-4-cyanophenyl)-3-(tetrahydro-2H-pyran-4-yl)-3,3a,4,5-tetrahydro-2H-benzo[g]indazole-7-carboxylic acid] | 127 nM
N#Cc1ccc(N2N=C3c4ccc(C(=O)O)cc4CC[C@H]3[C@H]2c2ccco2)cc1Cl [Example 45, (3S,3aS)-2-(3-chloro-4-cyanophenyl)-3-(2-furyl)-3,3a,4,5-tetrahydro-2H-benzo[g]indazole-7-carboxylic acid] | > 1000 nM
C[S+]([O-])CCNC(=O)c1ccc2c(c1)CC[C@H]1C2=NN(c2ccc(C#N)c(Cl)c2)[C@H]1c1ccc(F)cc1 (mixture of isomers) [Example 101, (±)-(3RS,3aRS)-2-(3-chloro-4-cyanophenyl)-3-(4-fluorophenyl)-N-[2-(methylsulfinyl)ethyl]-3,3a,4,5-tetrahydro-2H-benzo[g]indazole-7-carboxamide] | 23 nM
